{"source": "patent US4521408A", "about": "“Antibiotics-859A and production thereof” (priority 1982, dated 1985)", "type_in_all_cases": "cell-based", "key": {"[1]": {"system": "Pseudomonas clinical isolate B145", "test": "Comparative lethality in agar dilution test, isolate B145", "protocol": "(§1) 859A2, carbenicillin, and gentamicin were compared in agar dilution, surface-inoculated assays at the minimum bactericidal concentration (MBC), and at 1/2 and 1/4 of the MBC, vs four clinical isolates of Pseudomonas.\n(§2) Clinical isolates were supplied on nutrient agar-yeast extract slants. Strains B145 and B184 were reported as non-lactamase-containing strains whereas strains B126 and B189 contained lactamase.\n(§3) A loopful of cells of each culture was transferred to 10 ml nutrient broth-yeast (NBY) extract and incubated for 16 hours at 37° C. on the shaker. The inocula were adjusted to O.D.=0.22 at 660 nm with NBY and further diluted with NBY to 1:250,000. One tenth (0.1) ml of the diluted cell suspension was added to plates containing 10 ml of Brain Heart Infusion Agar and spread uniformly over the surface with a sterile glass \"hockey stick\". Stock solutions of antibiotics at 10 mg/ml were added to 45° C. agar in appropriate amounts. […] After overnight incubation of plates at 37° C., a visual count of colonies was made."}, "[2]": {"system": "Pseudomonas clinical isolate B184", "test": "Comparative lethality in agar dilution test, isolate B184", "protocol": "as §1, §2, §3"}, "[3]": {"system": "Pseudomonas clinical isolate B126", "test": "Comparative lethality in agar dilution test, isolate B126", "protocol": "as §1, §2, §3"}, "[4]": {"system": "Pseudomonas clinical isolate B189", "test": "Comparative lethality in agar dilution test, isolate B189", "protocol": "as §1, §2, §3"}}, "data": [{"compound": "CC1(C)S[C@@H]2[C@H](NC(=O)C(C(=O)O)c3ccccc3)C(=O)N2[C@H]1C(=O)O", "note": "(stereo partly drawn) [Carbenicillin, carbenicillin]", "values": [{"measurement": "# of Colonies", "setting": "[1]; 15.7 μg/ml", "result": 368}, {"measurement": "# of Colonies", "setting": "[1]; 31.3 μg/ml", "result": 335}, {"measurement": "# of Colonies", "setting": "[1]; 62.5 μg/ml", "result": 0}, {"measurement": "# of Colonies", "setting": "[2]; 15.7 μg/ml", "result": 75}, {"measurement": "# of Colonies", "setting": "[2]; 31.3 μg/ml", "result": 100}, {"measurement": "# of Colonies", "setting": "[2]; 62.5 μg/ml", "result": 0}, {"measurement": "# of Colonies", "setting": "[3]; 125 μg/ml", "result": 68}, {"measurement": "# of Colonies", "setting": "[3]; 250 μg/ml", "result": 28}, {"measurement": "# of Colonies", "setting": "[3]; 500 μg/ml", "result": 0}, {"measurement": "# of Colonies", "setting": "[4]; 31.3 μg/ml", "result": 333}, {"measurement": "# of Colonies", "setting": "[4]; 62.5 μg/ml", "result": 263}, {"measurement": "# of Colonies", "setting": "[4]; 125 μg/ml", "result": 0}]}, {"compound": "gentamicin", "values": [{"measurement": "# of Colonies", "setting": "[1]; 12.5 μg/ml", "result": 233}, {"measurement": "# of Colonies", "setting": "[1]; 25 μg/ml", "result": 121}, {"measurement": "# of Colonies", "setting": "[1]; 50 μg/ml", "result": 0}, {"measurement": "# of Colonies", "setting": "[2]; 0.39 μg/ml", "result": 79}, {"measurement": "# of Colonies", "setting": "[2]; 0.79 μg/ml", "result": 19}, {"measurement": "# of Colonies", "setting": "[2]; 1.56 μg/ml", "result": 0}, {"measurement": "# of Colonies", "setting": "[3]; 0.39 μg/ml", "result": 49}, {"measurement": "# of Colonies", "setting": "[3]; 0.78 μg/ml", "result": 7}, {"measurement": "# of Colonies", "setting": "[3]; 1.56 μg/ml", "result": 0}, {"measurement": "# of Colonies", "setting": "[4]; 0.78 μg/ml", "result": 278}, {"measurement": "# of Colonies", "setting": "[4]; 1.56 μg/ml", "result": 53}, {"measurement": "# of Colonies", "setting": "[4]; 3.12 μg/ml", "result": 0}]}]}
